Experimental data: ChEMBL document CHEMBL2321665, “Treatment of Obesity and Related Disorders with Acetyl-CoA Carboxylase Inhibitors” (ACS Med Chem Lett, 2013)

Columns and labels:
Acetyl-CoA carboxylase 2 = Acetyl-CoA carboxylase 2 (Homo sapiens, UniProt O00763); test: Inhibition of human recombinant ACC2
Acetyl-CoA carboxylase 1 = Acetyl-CoA carboxylase 1 (Homo sapiens, UniProt Q13085); test: Inhibition of human recombinant ACC1

Chain of Acetyl-CoA carboxylase 2 (O00763 whole entry): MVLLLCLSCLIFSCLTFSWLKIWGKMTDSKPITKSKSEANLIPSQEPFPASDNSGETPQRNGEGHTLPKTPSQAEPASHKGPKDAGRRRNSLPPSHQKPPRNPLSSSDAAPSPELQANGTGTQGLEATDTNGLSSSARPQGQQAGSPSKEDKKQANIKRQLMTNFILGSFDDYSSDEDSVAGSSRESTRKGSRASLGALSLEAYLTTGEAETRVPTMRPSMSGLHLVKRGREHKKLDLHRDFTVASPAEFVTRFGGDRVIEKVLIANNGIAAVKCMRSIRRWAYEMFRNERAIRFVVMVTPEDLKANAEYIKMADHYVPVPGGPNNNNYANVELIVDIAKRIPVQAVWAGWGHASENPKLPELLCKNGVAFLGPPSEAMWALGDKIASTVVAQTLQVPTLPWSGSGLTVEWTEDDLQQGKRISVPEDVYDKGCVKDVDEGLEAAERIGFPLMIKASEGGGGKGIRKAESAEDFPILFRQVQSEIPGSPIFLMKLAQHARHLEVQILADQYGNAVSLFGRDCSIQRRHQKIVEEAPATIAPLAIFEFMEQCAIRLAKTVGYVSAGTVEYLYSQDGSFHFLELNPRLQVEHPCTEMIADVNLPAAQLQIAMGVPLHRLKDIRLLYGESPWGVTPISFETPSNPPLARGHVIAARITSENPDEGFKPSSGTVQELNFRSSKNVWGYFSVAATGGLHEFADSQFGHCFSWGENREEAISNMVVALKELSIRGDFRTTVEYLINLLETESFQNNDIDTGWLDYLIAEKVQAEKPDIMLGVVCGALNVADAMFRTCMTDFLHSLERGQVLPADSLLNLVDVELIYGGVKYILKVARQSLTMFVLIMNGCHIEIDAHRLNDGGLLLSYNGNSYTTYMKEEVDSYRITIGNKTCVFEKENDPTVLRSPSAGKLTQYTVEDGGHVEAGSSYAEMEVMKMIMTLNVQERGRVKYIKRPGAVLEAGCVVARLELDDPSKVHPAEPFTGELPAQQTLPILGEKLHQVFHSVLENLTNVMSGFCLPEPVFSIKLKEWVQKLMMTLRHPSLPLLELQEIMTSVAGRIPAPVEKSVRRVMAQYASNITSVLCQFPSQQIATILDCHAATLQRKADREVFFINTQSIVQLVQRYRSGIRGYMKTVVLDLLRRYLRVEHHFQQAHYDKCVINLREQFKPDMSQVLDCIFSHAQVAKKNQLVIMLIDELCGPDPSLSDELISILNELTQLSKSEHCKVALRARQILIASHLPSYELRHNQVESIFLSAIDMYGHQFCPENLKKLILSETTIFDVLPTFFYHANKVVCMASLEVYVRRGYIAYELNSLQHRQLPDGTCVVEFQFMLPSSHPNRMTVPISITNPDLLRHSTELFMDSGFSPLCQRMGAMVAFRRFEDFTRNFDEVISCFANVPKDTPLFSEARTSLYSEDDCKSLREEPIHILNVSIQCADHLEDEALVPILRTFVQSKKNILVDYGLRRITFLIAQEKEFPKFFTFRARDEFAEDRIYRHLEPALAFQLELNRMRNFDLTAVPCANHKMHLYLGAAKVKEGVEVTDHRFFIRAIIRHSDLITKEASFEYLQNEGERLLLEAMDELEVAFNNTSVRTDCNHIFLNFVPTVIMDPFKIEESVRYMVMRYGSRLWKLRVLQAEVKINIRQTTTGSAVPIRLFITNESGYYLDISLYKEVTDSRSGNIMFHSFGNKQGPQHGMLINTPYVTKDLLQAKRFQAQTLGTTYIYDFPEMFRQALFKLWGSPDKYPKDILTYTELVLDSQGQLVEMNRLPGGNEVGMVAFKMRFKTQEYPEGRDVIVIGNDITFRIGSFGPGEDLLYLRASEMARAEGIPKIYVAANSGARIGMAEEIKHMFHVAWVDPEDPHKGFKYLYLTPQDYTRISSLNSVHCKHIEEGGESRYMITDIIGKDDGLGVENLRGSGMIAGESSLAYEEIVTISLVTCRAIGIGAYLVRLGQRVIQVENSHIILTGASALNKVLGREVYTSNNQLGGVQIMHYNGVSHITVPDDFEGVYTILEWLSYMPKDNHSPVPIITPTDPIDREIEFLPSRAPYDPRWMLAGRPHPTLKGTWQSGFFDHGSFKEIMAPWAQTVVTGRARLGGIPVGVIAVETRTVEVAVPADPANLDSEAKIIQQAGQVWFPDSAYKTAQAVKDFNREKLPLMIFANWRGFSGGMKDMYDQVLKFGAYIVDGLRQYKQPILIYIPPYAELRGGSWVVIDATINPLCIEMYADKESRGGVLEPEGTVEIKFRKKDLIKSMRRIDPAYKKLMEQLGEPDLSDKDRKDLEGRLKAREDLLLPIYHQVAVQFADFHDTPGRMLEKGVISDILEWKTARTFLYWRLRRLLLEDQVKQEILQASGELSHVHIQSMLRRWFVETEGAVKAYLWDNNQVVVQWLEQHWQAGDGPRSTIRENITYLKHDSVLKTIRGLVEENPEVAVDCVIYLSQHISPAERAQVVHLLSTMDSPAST

SMILES	IC50 (Acetyl-CoA carboxylase 2)	IC50 (Acetyl-CoA carboxylase 1)
CC(C)n1ncc2c1C(=O)CC1(CCN(C(=O)c3ccc4[nH]c(C(N)=O)cc4c3)CC1)C2	2.9 nM	11 nM
COc1ccc2ncc(C(=O)N3CCC4(CC3)CC(=O)c3c(cnn3C(C)C)C4)cc2c1	2.1 nM	5 nM
CNc1ccc2ccc(C(=O)N3CCC4(CC3)CC(=O)c3nn(C(C)(C)C)cc3C4)cc2n1	1.3 nM	2.2 nM
CC(C)n1ncc2c1C(=O)CC1(CCN(C(=O)c3ccc4ccc(N)nc4c3)CC1)C2	10 nM	12 nM
